Measurements published in US11548884B2, “Cyclic amidine compounds for the treatment of autoimmune disease” (Hoffmann-La Roche Inc., priority 2018, dated 2023).

Target: T1, human TLR8 (Homo sapiens, UniProt Q9NR97)
T1 sequence (Q9NR97 27-1041): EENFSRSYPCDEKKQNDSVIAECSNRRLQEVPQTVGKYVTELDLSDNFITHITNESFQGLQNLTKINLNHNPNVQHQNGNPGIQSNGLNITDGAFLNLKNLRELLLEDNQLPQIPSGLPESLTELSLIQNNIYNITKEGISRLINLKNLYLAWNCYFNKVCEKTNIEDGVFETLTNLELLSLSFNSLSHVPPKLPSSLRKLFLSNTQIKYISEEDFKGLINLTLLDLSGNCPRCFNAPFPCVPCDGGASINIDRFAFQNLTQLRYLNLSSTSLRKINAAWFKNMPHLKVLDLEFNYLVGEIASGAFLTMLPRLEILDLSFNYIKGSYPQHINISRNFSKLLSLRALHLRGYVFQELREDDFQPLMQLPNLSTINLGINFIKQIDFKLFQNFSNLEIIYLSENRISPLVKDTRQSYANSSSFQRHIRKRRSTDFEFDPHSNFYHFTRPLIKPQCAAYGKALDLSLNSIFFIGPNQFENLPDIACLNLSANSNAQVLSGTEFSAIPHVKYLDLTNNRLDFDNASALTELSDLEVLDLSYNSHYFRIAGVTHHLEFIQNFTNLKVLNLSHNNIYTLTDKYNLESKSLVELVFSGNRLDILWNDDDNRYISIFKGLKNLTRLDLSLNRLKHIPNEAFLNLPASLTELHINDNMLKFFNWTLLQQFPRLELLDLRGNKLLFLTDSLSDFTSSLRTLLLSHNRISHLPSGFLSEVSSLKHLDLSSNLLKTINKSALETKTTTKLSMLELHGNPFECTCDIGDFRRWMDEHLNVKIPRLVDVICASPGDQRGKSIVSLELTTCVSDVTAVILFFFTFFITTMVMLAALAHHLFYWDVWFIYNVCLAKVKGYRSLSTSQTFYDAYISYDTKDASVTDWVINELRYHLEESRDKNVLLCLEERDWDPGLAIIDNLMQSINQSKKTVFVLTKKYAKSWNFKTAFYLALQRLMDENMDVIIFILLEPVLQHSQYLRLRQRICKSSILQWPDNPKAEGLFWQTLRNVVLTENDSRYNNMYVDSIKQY
Test: HEK293-Blue-hTLR-8 cells assay (SEAP reporter, R848 stimulation)
Type: cell-based
Settings: HEK293-Blue-hTLR8 cells, R848 ligand, 20 h incubation
Procedure: The following tests were carried out in order to determine the activity of the compounds of formula (I) in HEK293-Blue-hTLR-7/8/9 cells assay.
HEK293-Blue-hTLR-8 Cells Assay:
A stable HEK293-Blue-hTLR-8 cell line was purchased from InvivoGen (Cat. #: hkb-htlr8, San Diego, Calif., USA). These cells were originally designed for studying the stimulation of human TLR8 by monitoring the activation of NF-κB. A SEAP (secreted embryonic alkaline phosphatase) reporter gene was placed under the control of the IFN-β minimal promoter fused to five NF-κB and AP-1-binding sites. The SEAP was induced by activating NF-κB and AP-1 via stimulating HEK-Blue hTLR8 cells with TLR8 ligands. Therefore the reporter expression was declined by TLR8 antagonist under the stimulation of a ligand, such as R848, for incubation of 20 h. The cell culture supernatant SEAP reporter activity was determined using QUANTI-Blue™ kit (Cat. #: rep-qb1, Invivogen, San Diego, Calif., USA) at a wavelength of 640 nm, a detection medium that turns purple or blue in the presence of alkaline phosphatase.
HEK293-Blue-hTLR8 cells were incubated at a density of 250,000˜450,000 cells/mL in a volume of 170 μL in a 96-well plate in Dulbecco's Modified Eagle's medium (DMEM) containing 4.5 g/L glucose, 50 U/mL penicillin, […], […], 2 mM L-glutamine, 10% (v/v) heat-inactivated fetal bovine serum with addition of 20 μL test compound in a serial dilution in the presence of final DMSO at 1% and 10 μL of 60 uM R848 in above DMEM, perform incubation under 37° C. in a CO2 incubator for 20 h. Then 20 μL of the supernatant from each well was incubated with 180 μL Quanti-blue substrate solution at 37° C. for 2 h and the absorbance was read at 620˜655 nm using a spectrophotometer. The signalling pathway that TLR8 activation leads to downstream NF-κB activation has been widely accepted, and therefore similar reporter assay was modified for evaluating TLR8 antagonist.

IC50 | Compound
8 nM | C[C@@H]1CN(c2ccc(C#N)c3ncccc23)C[C@H](C2=Nc3cccc(N4CCNCC4)c3CN2)O1 [Example 6, 5-[(2R,6R)-2-methyl-6-(5-piperazin-1-yl-3,4-dihydroquinazolin-2-yl)morpholin-4-yl]quinoline-8-carbonitrile]
< 3 nM | C[C@@H]1CN(c2ccc(C#N)c3ncccc23)C[C@H](C2=Nc3ccc(N4CCNCC4)cc3CN2)O1 [Example 7, 5-[(2R,6R)-2-methyl-6-(6-piperazin-1-yl-3,4-dihydroquinazolin-2-yl)morpholin-4-yl]quinoline-8-carbonitrile]
4 nM | C[C@@H]1CN(c2ccc(C#N)c3ncccc23)C[C@H](C2=Nc3cc(N4CCNCC4)ccc3CN2)O1 [Example 8, 5-[(2R,6R)-2-methyl-6-(7-piperazin-1-yl-3,4-dihydroquinazolin-2-yl)morpholin-4-yl]quinoline-8-carbonitrile]
46 nM | C[C@@H]1CN(c2ccc(C#N)c3ncccc23)C[C@H](C2=Nc3c(cccc3N3CCNCC3)CN2)O1 [Example 9, 5-[(2R,6R)-2-methyl-6-(8-piperazin-1-yl-3,4-dihydroquinazolin-2-yl)morpholin-4-yl]quinoline-8-carbonitrile]
14 nM | C[C@@H]1CN(c2ccc(C#N)c3ncccc23)C[C@H](C2=Nc3cccc(N4CCN(C)CC4)c3CN2)O1 [Example 12, 5-[(2R,6R)-2-methyl-6-[5-(4-methylpiperazin-1-yl)-3,4-dihydroquinazolin-2-yl]morpholin-4-yl]quinoline-8-carbonitrile]
87 nM | C[C@@H]1CN(c2ccc(C#N)c3ncccc23)C[C@H](C2=Nc3cccc(N4CCC5(CCNC5)C4)c3CN2)O1 (stereo partly drawn) [Example 13, 5-[(2R,6R)-2-[5-(2,7-diazaspiro[4.4]nonan-2-yl)-3,4-dihydroquinazolin-2-yl]-6-methyl-morpholin-4-yl]quinoline-8-carbonitrile]
191 nM | C[C@@H]1CN(c2ccc(C#N)c3ncccc23)C[C@H](C2=Nc3cccc(C4=CCNCC4)c3CCN2)O1 [Example 16, 5-[(2R,6R)-2-methyl-6-[6-(1,2,3,6-tetrahydropyridin-4-yl)-4,5-dihydro-3H-1,3-benzodiazepin-2-yl]morpholin-4-yl]quinoline-8-carbonitrile]
148 nM | C[C@@H]1CN(c2ccc(C#N)c3ncccc23)C[C@H](C2=Nc3ccc(N4CCNCC4)cc3CCN2)O1 [Example 17, 5-[(2R,6R)-2-methyl-6-(7-piperazin-1-yl-4,5-dihydro-3H-1,3-benzodiazepin-2-yl)morpholin-4-yl]quinoline-8-carbonitrile]
71 nM | C[C@@H]1CN(c2ccc(C#N)c3ncccc23)C[C@H](C2=Nc3cccc(C4CCNCC4)c3CN2)O1 [Example 18, 5-[(2R,6R)-2-methyl-6-[5-(4-piperidyl)-3,4-dihydroquinazolin-2-yl]morpholin-4-yl]quinoline-8-carbonitrile]
